Measured values reported in ChEMBL document CHEMBL1201862, “PubChem BioAssay data set” (2004).
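Protocol summary: plate cells (96-well), add compound at 5 concentrations, incubate 48 h, interpolate endpoints linearly. GI50 = concentration required for 50% inhibition of growth.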 Active and inactive are the calls of the source. Rule as the data show it: active = GI50 up to about 1.1 µM and inactive = higher.

Tests used:
Experiment in all cases: growth of human tumour cells (NCI), 48 h
U-251 = system: U-251
CAKI-1 = system: CAKI-1
HCT-116 = system: HCT-116
CCRF-CEM = system: CCRF-CEM
SK-OV-3 = system: SK-OV-3
SNB-75 = system: SNB-75
SF-268 = system: SF-268
HOP-92 = system: HOP-92
TK-10 = system: TK-10
SNB-78 = system: SNB-78
LOX IMVI = system: LOX IMVI
OVCAR-3 = system: OVCAR-3
NCI-H460 = system: NCI-H460
KM-20L2 = system: KM-20L2
HL-60 = system: HL-60
RPMI-8226 = system: RPMI-8226

Structure (SMILES) | GI50 (U-251) | GI50 (CAKI-1) | GI50 (HCT-116) | GI50 (CCRF-CEM) | GI50 (SK-OV-3) | GI50 (SNB-75) | GI50 (SF-268) | GI50 (HOP-92) | GI50 (TK-10) | GI50 (SNB-78) | GI50 (LOX IMVI) | GI50 (OVCAR-3) | GI50 (NCI-H460) | GI50 (KM-20L2) | GI50 (HL-60) | GI50 (RPMI-8226)
COc1cc2c(c(O)c1C)C(=O)CC(c1ccccc1)O2 (stereo not given) | 56.4 µM (inactive) | 94.8 µM (inactive) | 31.7 µM (inactive) | > 10 µM (inactive) | 36.2 µM (inactive) | 28.8 µM (inactive) | > 100 µM (inactive) | 13.4 µM (inactive) | 32.2 µM (inactive) | 55.7 µM (inactive) | > 10 µM (inactive) | 48.1 µM (inactive) | > 10 µM (inactive) | 15.1 µM (inactive) | – | –
O=C(O)C1=C(Cl)c2ccccc2S1(=O)=O | – | > 100 µM (inactive) | – | > 100 µM (inactive) | > 100 µM (inactive) | > 100 µM (inactive) | > 100 µM (inactive) | > 100 µM (inactive) | > 100 µM (inactive) | > 100 µM (inactive) | > 100 µM (inactive) | > 10 µM (inactive) | > 100 µM (inactive) | > 100 µM (inactive) | > 100 µM (inactive) | > 100 µM (inactive)
[O-][Cl+3]([O-])([O-])[O-].c1ccc(-c2[o+]c(-c3ccccc3)c(-c3ccccc3)c(-c3ccccc3)c2-c2ccccc2)cc1 | > 100 µM (inactive) | > 100 µM (inactive) | > 100 µM (inactive) | – | > 100 µM (inactive) | > 100 µM (inactive) | > 100 µM (inactive) | > 100 µM (inactive) | > 100 µM (inactive) | > 100 µM (inactive) | > 100 µM (inactive) | > 100 µM (inactive) | > 100 µM (inactive) | > 100 µM (inactive) | > 100 µM (inactive) | 24.9 µM (inactive)
Cc1ccc(Cn2c(C)nc3c2C(=O)c2ccccc2C3=O)cc1 | 1.88 µM (inactive) | – | 0.755 µM (active) | 1.98 µM (inactive) | 13.8 µM (inactive) | 13.9 µM (inactive) | 3.43 µM (inactive) | – | 13 µM (inactive) | 20.3 µM (inactive) | 0.597 µM (active) | 10.6 µM (inactive) | 0.387 µM (active) | 5.21 µM (inactive) | 1.91 µM (inactive) | –
COc1cc(Nc2nc3ccccc3nc2-c2cccs2)cc(OC)c1OC | > 10 µM (inactive) | – | 28.1 µM (inactive) | 47.1 µM (inactive) | 40.2 µM (inactive) | 40.6 µM (inactive) | 25.8 µM (inactive) | 13.9 µM (inactive) | 35.8 µM (inactive) | 90.6 µM (inactive) | 45.6 µM (inactive) | 43.8 µM (inactive) | 33.7 µM (inactive) | 36.1 µM (inactive) | 15.2 µM (inactive) | 26.9 µM (inactive)
CN(C(=O)c1ccc([N+](=O)[O-])cc1)c1ccccc1 | > 100 µM (inactive) | > 100 µM (inactive) | > 100 µM (inactive) | > 100 µM (inactive) | > 100 µM (inactive) | 87.9 µM (inactive) | > 100 µM (inactive) | > 100 µM (inactive) | – | > 100 µM (inactive) | > 100 µM (inactive) | > 100 µM (inactive) | > 100 µM (inactive) | > 100 µM (inactive) | – | > 100 µM (inactive)
CC(C)(C)c1cc([Si](C)(C)C)c(C#N)c([Si](C)(C)C)c1 | 36.1 µM (inactive) | > 100 µM (inactive) | 54.8 µM (inactive) | 48.6 µM (inactive) | > 100 µM (inactive) | 47.3 µM (inactive) | 41.7 µM (inactive) | > 100 µM (inactive) | > 100 µM (inactive) | 53.2 µM (inactive) | 78.5 µM (inactive) | > 100 µM (inactive) | > 100 µM (inactive) | > 100 µM (inactive) | 22 µM (inactive) | –
COc1ccc(/C(=N\NC(=O)C(N)=O)C(c2ccc(OC)cc2)C2(O)C(=O)Nc3c(Cl)cccc32)cc1 (stereo not given) | > 100 µM (inactive) | – | > 100 µM (inactive) | 50.1 µM (inactive) | – | > 100 µM (inactive) | > 100 µM (inactive) | > 100 µM (inactive) | > 100 µM (inactive) | > 100 µM (inactive) | 58.6 µM (inactive) | > 100 µM (inactive) | > 100 µM (inactive) | > 100 µM (inactive) | 26.9 µM (inactive) | > 100 µM (inactive)
CC1=Nc2ccccc2SC(c2c(Cl)cccc2Cl)C1 (stereo not given) | 0.345 µM (active) | 2.1 µM (inactive) | 0.225 µM (active) | 0.304 µM (active) | 2.45 µM (inactive) | 1.91 µM (inactive) | 1.01 µM (active) | 1.82 µM (inactive) | 2.22 µM (inactive) | 3.31 µM (inactive) | 0.277 µM (active) | 0.281 µM (active) | 1.14 µM (inactive) | 1.59 µM (inactive) | 0.341 µM (active) | 0.314 µM (active)
CC(=O)Oc1cc(OC(C)=O)c(OC(C)=O)c2c1CC1C(=O)C3(CCc4ccccc43)C(=O)C1C2 (stereo not given) | 15.8 µM (inactive) | 20.2 µM (inactive) | – | 10.7 µM (inactive) | 32.1 µM (inactive) | 0.912 µM (active) | > 10 µM (inactive) | > 100 µM (inactive) | 17.4 µM (inactive) | 23.1 µM (inactive) | 6.67 µM (inactive) | 4.82 µM (inactive) | 13.9 µM (inactive) | 22.8 µM (inactive) | 4.53 µM (inactive) | 0.555 µM (active)
COc1ccccc1-n1c(C)nc2ccccc2c1=O | > 100 µM (inactive) | > 100 µM (inactive) | > 100 µM (inactive) | > 100 µM (inactive) | > 100 µM (inactive) | > 100 µM (inactive) | > 100 µM (inactive) | > 100 µM (inactive) | > 100 µM (inactive) | > 100 µM (inactive) | > 100 µM (inactive) | > 100 µM (inactive) | > 100 µM (inactive) | > 100 µM (inactive) | > 100 µM (inactive) | –
Cc1ccc(CC(C)N)cc1 (stereo not given) | > 100 µM (inactive) | > 100 µM (inactive) | > 100 µM (inactive) | > 100 µM (inactive) | > 100 µM (inactive) | > 100 µM (inactive) | > 100 µM (inactive) | > 100 µM (inactive) | > 100 µM (inactive) | > 100 µM (inactive) | > 100 µM (inactive) | > 100 µM (inactive) | > 100 µM (inactive) | > 100 µM (inactive) | > 100 µM (inactive) | > 100 µM (inactive)
CC(C)(c1ccc(Oc2ccc(C#N)c(C#N)c2)cc1)c1ccc(Oc2ccc(C#N)c(C#N)c2)cc1 | > 10 µM (inactive) | > 10 µM (inactive) | > 10 µM (inactive) | > 10 µM (inactive) | > 10 µM (inactive) | 1.78 µM (inactive) | > 10 µM (inactive) | > 10 µM (inactive) | > 10 µM (inactive) | > 10 µM (inactive) | > 10 µM (inactive) | > 10 µM (inactive) | > 10 µM (inactive) | > 10 µM (inactive) | > 10 µM (inactive) | > 10 µM (inactive)
COc1cc(C(C#N)NNC(=O)Cc2ccccc2)cc(OC)c1OC (stereo not given) | > 100 µM (inactive) | > 100 µM (inactive) | > 100 µM (inactive) | > 10 µM (inactive) | > 100 µM (inactive) | 35.5 µM (inactive) | > 100 µM (inactive) | 95.3 µM (inactive) | > 100 µM (inactive) | > 100 µM (inactive) | > 100 µM (inactive) | > 100 µM (inactive) | > 100 µM (inactive) | > 100 µM (inactive) | > 100 µM (inactive) | > 100 µM (inactive)
CC/C(CC(=O)CCC(=O)Nc1ccccc1[N+](=O)[O-])=N/NC(=O)C[n+]1ccccc1 | > 100 µM (inactive) | > 100 µM (inactive) | > 100 µM (inactive) | > 100 µM (inactive) | > 100 µM (inactive) | > 100 µM (inactive) | > 100 µM (inactive) | > 100 µM (inactive) | > 100 µM (inactive) | > 100 µM (inactive) | > 100 µM (inactive) | > 100 µM (inactive) | > 100 µM (inactive) | > 100 µM (inactive) | > 100 µM (inactive) | > 100 µM (inactive)
CN(Cc1ccccc1)C1(N(C)Cc2ccccc2)CC1 | > 100 µM (inactive) | > 100 µM (inactive) | > 100 µM (inactive) | > 100 µM (inactive) | > 100 µM (inactive) | > 100 µM (inactive) | > 100 µM (inactive) | > 100 µM (inactive) | > 100 µM (inactive) | > 100 µM (inactive) | > 100 µM (inactive) | > 100 µM (inactive) | > 100 µM (inactive) | > 100 µM (inactive) | > 100 µM (inactive) | –
CCOC1c2cc(C(C)C)c(O)c(O)c2[C@@]23CCCC(C)(C)C2C1OC3=O (stereo not given in full) | > 100 µM (inactive) | > 100 µM (inactive) | > 100 µM (inactive) | 47.4 µM (inactive) | > 100 µM (inactive) | 47.8 µM (inactive) | > 100 µM (inactive) | – | > 100 µM (inactive) | > 100 µM (inactive) | > 100 µM (inactive) | 84.5 µM (inactive) | > 100 µM (inactive) | > 100 µM (inactive) | 93.1 µM (inactive) | 40.6 µM (inactive)
C/C(=C(/C)c1cc[n+](C)cc1)c1cc[n+](C)cc1 | > 75 µM (inactive) | > 75 µM (inactive) | > 75 µM (inactive) | > 75 µM (inactive) | > 75 µM (inactive) | > 75 µM (inactive) | > 75 µM (inactive) | > 75 µM (inactive) | > 75 µM (inactive) | > 75 µM (inactive) | 43.6 µM (inactive) | 9.12 µM (inactive) | > 75 µM (inactive) | > 75 µM (inactive) | > 75 µM (inactive) | 28 µM (inactive)
